Where “and” joins values, the source holds several entries; their conditions need not be identical. Equal values may be shown once.
What was measured:
[1] = test system: LptB2F^E249KGC; assay: LPS release assay, LptB2F(E249K)GC; format: biochemical, Acinetobacter baylyi; conditions: LptF E249K complex, E. coli LPS
Experimental: (§1) Proteoliposomes were prepared as described previously. Aqueous E. coli polar lipid extract (Avanti Polar Lipids) (30 mg ml^−1) and aqueous LPS from E. coli EH100 (Ra mutant; Sigma) (2 mg ml^−1) were sonicated briefly for homogenization. For experiments testing the effect of LPS structure, we used LPS isolated from either GKM374 (BL21DE3 eptA::catR arnA::kanR eptC::gentR) or TXM418 (BL21DE3 eptA::catR arnA::FRT eptB::gentR lpxM::kanR) as described previously. A mixture of 20 mM Tris-HCl (pH 8.0), 150 mM NaCl, 7.5 mg ml^−1 of E. coli polar lipids, 0.5 mg ml^−1 of LPS and 0.25% DDM was prepared and kept on ice for 10 min. Purified LptB2FGC or LptB2FG was added to a final concentration of 0.86 μM and the mixture was left on ice for 20 min. The mixture was diluted 100-fold with cold 20 mM Tris-HCl (pH 8.0) and 150 mM NaCl and kept on ice for 20 min. The proteoliposomes were pelleted (300,000g, 2 h, 4 °C), resuspended in 20 mM Tris-HCl (pH 8.0) and 150 mM NaCl, diluted 100× and centrifuged (300,000g, 2 h, 4 °C). The pellets were resuspended in a mixture of 20 mM Tris-HCl (pH 8.0), 150 mM NaCl and 10% glycerol (250 μl per 100 μl of the original predilution solution), homogenized by sonication, flash frozen and stored at −80 °C until use.
The amounts of release of LPS from proteoliposomes to LptA were measured as previously described. […]

[2] = test system: Acinetobacter LptB2FGC; assay: LPS release assay from proteoliposomes to LptA, wild-type LptB2FGC; format: biochemical, Acinetobacter baylyi; conditions: for Inhibition of LPS release (transport) to LptA: wild-type LptB2FGC, E. coli LPS, 60 min
Experimental: as §1
The amounts of release of LPS from proteoliposomes to LptA were measured as previously described. Assays used 60% proteoliposomes (by volume) in a solution containing 50 mM Tris-HCl (pH 8.0), 500 mM NaCl, 10% glycerol and 2 µM LptA^I36pBPA. Reaction mixtures were incubated with drug for 10 min at room temperature, as applicable. Reactions were then initiated by the addition of ATP and MgCl2 (final concentrations of 5 mM and 2 mM, respectively) and proceeded at 30 °C. Aliquots (25 µl) were removed from the reaction mixtures and irradiated with ultraviolet (UV) light (365 nm) on ice for 10 min using a B-100AP lamp (Fisher Scientific). Following UV irradiation, 25 µl of 2× SDS–PAGE sample loading buffer was added, samples were boiled for 10 min and proteins were separated using Tris-HCl 4–20% polyacrylamide gradient gels with Tris-glycine running buffer. Immunoblotting was conducted as described above.

[3] = test system: Acinetobacter baylyi ΔLpxC; format: cell-based; conditions: A. baylyi ΔLpxC (lacking LPS)
Experimental: (§2) Culture, genetic manipulation and MIC measurements of A. baylyi ADP1 were conducted according to previously reported procedures[46],[51]. Point mutants were constructed in a two-step procedure following ref. [52] with the introduction and excision of the integration cassette at codon 66 of pepA, wherein the excising fragment of otherwise wild-type chromosomal DNA sequence from codon 406 of pepA to codon 193 of lptG bore the desired mutation and the resulting clones were screened by amplicon sequencing from codon 81 of HolC to codon 501 of GpmI, whereas lpxM deletion was achieved following the same procedure except that the integration cassette insertion and excision removed codons 79–279 of lpxM to avoid interference with neighbouring and overlapping genes that a larger deletion may risk and replaced codon 78 with an ochre stop codon to prevent a readthrough resulting in an aberrant fusion, with the excising fragment sequence spanning from codon 211 of sppA to codon 497 of ComA and verified by amplicon sequencing from codon 94 of MhpC to codon 327 of ComA as well as by absence of a PCR product corresponding to a region spanning codons 79 to 279 of lpxM to check for duplications. A deletion of the lon protease was made in the same manner to produce the stain used for expression and purification of LptB2FG to mimic the BL21 strain of E. coli used in the rest of purifications, for which the region encompassing 72 base pairs (bp) upstream of the lon start codon and 1 bp downstream of the lon stop codon was excised after being replaced with the same integration cassette, yielding a markerless deletion, with the excising fragment sequence spanning from codon 491 of ArnT to codon 40 of 45_DOPA_Dioxygenase and verified by amplicon sequencing spanning from codon 322 of ArnT to codon 221 of 45_DOPA_Dioxygenase as well as by absence of a PCR product corresponding to a region spanning from codons 328 to 768 of lon to check for duplications. Following amplicon confirmation, three validated isolates of each constructed mutant were tested for susceptibility to a panel of antibiotics with […] known mechanisms of action as a further validation step to ensure congruence of phenotypes across replicates, which was confirmed in all cases and one of the validated replicates was later used for MIC measurements reported here.
(§3) MIC determinations were performed by broth microdilution in line with CLSI guidelines (CLSI M07-A11 2018). Bacterial inocula were prepared by diluting overnight liquid cultures in LB. Antibacterial panels containing antibacterial solutions were inoculated with an appropriate volume of inoculum to give a final inoculum of about 5 × 10^5 c.f.u. ml^−1 and desired test concentrations of antibacterial agents in standard 96-well plates with 0.1 ml of culture per well. The test plates were incubated for 20–24 h and optical density (OD600) was recorded using a plate reader. MIC values corresponded to the lowest compound concentration inhibiting bacterial growth beyond which OD ceased to decrease.

[4] = test system: Acinetobacter baylyi LptF(R320T); format: cell-based; conditions: A. baylyi LptF(R320T)
Experimental: as §2, §3

[5] = test system: Acinetobacter baylyi LptG(L36Q); format: cell-based; conditions: A. baylyi LptG(L36Q)
Experimental: as §2, §3

[6] = test system: Acinetobacter baylyi LptF(W271R); format: cell-based; conditions: A. baylyi LptF(W271R)
Experimental: as §2, §3

[7] = test system: Acinetobacter baylyi LptF(V314L 315del); format: cell-based; conditions: A. baylyi LptF(V314L 315del)
Experimental: as §2, §3

[8] = test system: Acinetobacter baylyi LptF(E249K); format: cell-based; conditions: A. baylyi LptF(E249K)
Experimental: as §2, §3

[9] = test system: Acinetobacter baylyi LptF(E58V); format: cell-based; conditions: A. baylyi LptF(E58V)
Experimental: as §2, §3

[10] = test system: Acinetobacter baylyi LptF(I317N); format: cell-based; conditions: A. baylyi LptF(I317N)
Experimental: as §2, §3

[11] = molecular target: T1, E. coli LptB2FGC (Escherichia coli, UniProt P0ADC6+P0AF98); assay: LPS release assay, E. coli LptB2FGC; format: biochemical; conditions: wild-type E. coli LptB2FGC, 60 min
T1 construct: made in house
T1 sequence (P0AF98 whole entry): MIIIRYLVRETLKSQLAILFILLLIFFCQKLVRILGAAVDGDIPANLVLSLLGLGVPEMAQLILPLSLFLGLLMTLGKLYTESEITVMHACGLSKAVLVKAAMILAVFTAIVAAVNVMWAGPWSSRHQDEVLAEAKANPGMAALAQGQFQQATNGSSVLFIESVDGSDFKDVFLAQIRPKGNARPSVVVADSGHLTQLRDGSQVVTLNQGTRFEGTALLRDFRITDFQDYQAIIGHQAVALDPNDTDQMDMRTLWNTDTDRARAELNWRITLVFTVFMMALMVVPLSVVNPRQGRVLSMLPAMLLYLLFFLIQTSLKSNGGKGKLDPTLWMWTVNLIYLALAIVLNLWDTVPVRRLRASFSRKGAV
T1 sequence (P0ADC6 whole entry): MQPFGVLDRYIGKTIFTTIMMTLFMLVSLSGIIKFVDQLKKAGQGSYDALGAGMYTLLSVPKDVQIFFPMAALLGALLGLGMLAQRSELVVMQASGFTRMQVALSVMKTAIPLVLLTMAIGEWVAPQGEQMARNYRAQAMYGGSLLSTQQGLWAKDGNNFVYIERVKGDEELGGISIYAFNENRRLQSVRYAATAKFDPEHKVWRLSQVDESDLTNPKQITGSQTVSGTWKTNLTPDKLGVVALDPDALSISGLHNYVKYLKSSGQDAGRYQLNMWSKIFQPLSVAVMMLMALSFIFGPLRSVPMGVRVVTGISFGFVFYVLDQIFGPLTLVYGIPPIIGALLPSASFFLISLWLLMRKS
T1 sequence (P0A9V1 whole entry partner): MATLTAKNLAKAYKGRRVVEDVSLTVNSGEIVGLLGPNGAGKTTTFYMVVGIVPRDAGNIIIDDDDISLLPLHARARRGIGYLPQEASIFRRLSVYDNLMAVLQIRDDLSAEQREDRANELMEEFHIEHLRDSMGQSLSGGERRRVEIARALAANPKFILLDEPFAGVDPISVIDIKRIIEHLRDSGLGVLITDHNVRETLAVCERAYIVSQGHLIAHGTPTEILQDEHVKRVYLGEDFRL
T1 sequence (P0ADV9 whole entry partner): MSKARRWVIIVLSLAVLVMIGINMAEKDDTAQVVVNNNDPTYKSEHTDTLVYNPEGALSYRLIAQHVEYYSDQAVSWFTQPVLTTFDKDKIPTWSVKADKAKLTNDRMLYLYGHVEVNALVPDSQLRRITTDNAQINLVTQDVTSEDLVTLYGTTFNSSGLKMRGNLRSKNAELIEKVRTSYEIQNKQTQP
Experimental: The amounts of release of LPS from proteoliposomes to LptA were measured as previously described[20]. Assays used 60% proteoliposomes (by volume) in a solution containing 50 mM Tris-HCl (pH 8.0), 500 mM NaCl, 10% glycerol and 2 µM LptA^I36pBPA. Reaction mixtures were incubated with drug for 10 min at room temperature, as applicable. Reactions were then initiated by the addition of ATP and MgCl2 (final concentrations of 5 mM and 2 mM, respectively) and proceeded at 30 °C. Aliquots (25 µl) were removed from the reaction mixtures and irradiated with ultraviolet (UV) light (365 nm) on ice for 10 min using a B-100AP lamp (Fisher Scientific).

Row | Compound | Inhibition of LPS release to LptA [1] | Fold higher compound concentration at which transport of ΔLpxM LPS was possible vs that inhibiting wild-type LPS transport ([2]; LPS from E. coli LpxM deletion strain vs matching wild-type LPS) [fold] | Inhibition of LPS release (transport) to LptA [2] | MIC [3] | Fold less effective than 1 and 2 in LPS release from LptB2FGC to LptA ([2]; LptB2FGC with LptC TM helix) [fold] | MIC [4] | MIC [5] | MIC [6] | MIC [7] | MIC [8] | MIC [9] | MIC [10] | Inhibition of LPS transport to LptA [11]
1 | CN1C(=O)[C@H](CCCCN)NC(=O)[C@H](CCCN)NCc2cccnc2Sc2c(Cl)ccc(-c3ccc(N)nc3)c2CNC(=O)[C@@H]1Cc1c[nH]c2ccccc12 [Compound 1] | did not block LPS release | 20 | blocked LPS release | > 50 µM and > 40 µg/mL |  |  |  |  |  |  |  |  | 
2 | CN1C(=O)[C@H](CCCCN)NC(=O)[C@H](CCCN)NCc2cccnc2Sc2c(Cl)ccc(Cl)c2CNC(=O)[C@@H]1Cc1c[nH]c2ccccc12 [Compound 3] |  |  | not inhibited |  | 100 | 0.24 µM and 0.18 µg/mL | 0.44 µM and 0.33 µg/mL | 0.07 µg/mL and 0.1 µM | 0.24 µM and 0.18 µg/mL | > 50 µM | 14 µM and 10 µg/mL | > 50 µM | 
3 | CN1C(=O)[C@H](CCCCN)NC(=O)[C@H](CCCN)NCc2cccnc2Sc2cccc(-c3ccc(C(=O)O)cc3)c2CNC(=O)[C@@H]1Cc1c[nH]c2ccccc12 [Compound 2, Zosurabalpin] |  |  |  |  |  | 1.4 µM and 1.1 µg/mL | 0.44 µM and 0.35 µg/mL | 0.08 µg/mL and 0.1 µM | 3 µM and 2 µg/mL | 17 µM and 13 µg/mL | 3.4 µM and 2.7 µg/mL | 9 µM and 7 µg/mL | does not inhibits LPS transport
